Laboratory results published in patent publication US10654838B2, “Aminopyridine compounds useful as inhibitors of protein prenylation” (INSTITUT NATIONAL DE LA SANTE ET DE LA RECHERCHE MEDICALE …, priority 2014, dated 2020).

Columns and labels:
[1] = test system: lamin A and progerin mRNA expression; experiment: Quantitative PCR of lamin A and progerin mRNA; assay type: cell-based, human; settings: HGPS MSCs, 48 h, normalized on DMSO 0.1%
Procedure: Total RNA was isolated using RNeasy Mini extraction kit (Qiagen, Courtaboeuf, France) according to the manufacturer's protocol. An on-col DNase I digestion was performed to avoid genomic DNA amplification. RNA level and quality were checked using the Nanodrop technology. A total of 500 ng of RNA was used for reverse transcription using the Superscript III reverse transcription kit (Invitrogen). Q-PCR analysis was performed using a ABI 7900 system (Applied biosystem) and TaqMan gene expression Master Mix (Roche) following the manufacturer's instructions. Quantification of gene expression was based on the DeltaCt Method and normalized on 18S expression (Assay HS_99999901_S1). PCR primers were previously described by S. Rodriguez and colleagues (Rodriguez S et al., 2009, Eur J Hum Genet, VOL 17(7): 928-37). Primer sequences were lamin A (exons 11/12), 5′-[…]-3′ (SEQ N^o 1) and 5′-AGTTCTGGGGGCTCTGGGT-3′ (SEQ N^o 2); lamin C (exons 9/10), 5′-[…]-3′ (SEQ N^o 3) and 5′-CGGCGGCTACCACTCAC-3′ (SEQ ID N^o 4) and Progerin
(exons 11/12), 5′-ACTGCAGCAGCTCGGGG-3′ (SEQ N^o 5) and 5′-TCTGGGGGCTCTGGGC-3′ (SEQ ID N^o 6).
Taqman MGB probe sequences were lamin A (exon 11), 5′-ACTCGCAGCTACCG-3′ (SEQ N^o 7); lamin C (exon10), 5′-ATGCGCAAGCTGGTG-3′ (SEQ ID N^o 8) and Progerin (exon 11), 5′-CGCTGAGTACAACCT-3′ (SEQ ID N^o 9). […]

prelamin A = experiment: Western immunoblotting of prelamin A; assay type: cell-based, human; settings: HGPS MSCs, optimal concentration
Procedure: Whole-cell lysates of MSC were collected, separated by SDS-PAGE, and transferred onto PVPF membrane by liquid transfer method. Blots were blocked in 10% skim milk (Bio-Rad) in tween 0.1% tris-buffered saline (TTBS) 1× one hour at room temperature. The primary antibodies used were a mouse anti-lamins A/C 1:200 (Millipore, JOL2), a rabbit anti-prelamin A 1/100 (ANTOO45, Diatheva) and a β-actin 1/200000 (Sigma). Membranes were incubated during the night at 4° C. Antigen-antibody binding was detected using horseradish peroxidaseconjugated species-specific secondary antibodies (GE-Healthcare, Little Chalfont, UK) followed by enhanced chemiluminescence Western blotting detection reagents (Perkin-Elmer, Waltham, USA).

HGPS MSCs [2] = experiment: Cell proliferation (Ki-67 immunostaining); assay type: cell-based, human; settings: 48 h
Procedure: (§1) In the 4-steps protocol, cells were fixed in 4% paraformaldehyde (15 minutes, room temperature) before permeabilization and blocking in PBS supplemented with 0.1% triton X-100 and 1% BSA (Sigma-Aldrich, St. Louis, USA). Primary antibodies were incubated one hour at room temperature in blocking buffer. Antibodies included mouse anti-lamins A/C (clone JOL2, Millipore, Billerica, USA), rabbit anti-prelamin A (ANTOO45, Diatheva) and anti-Ki67 (clone Ki-S5, MAB4190, Millipore, Billerica, USA). Cells were stained with the species-specific fluorophore-conjugated secondary antibody (Invitrogen) (one hour, room temperature) and nuclei were visualized with Hoechst 33342.

HGPS MSCs [3] = experiment: Osteogenic differentiation (alkaline phosphatase activity); assay type: cell-based, human; settings: 7 days of osteogenic differentiation
Procedure: MSC were seeded at 600 cells per well in 384 well plate in MSC culture medium and treated as previously described. After 72 hours, MSC medium was replaced by STEMPRO osteogenic induction medium (Invitrogen) in presence or not of the different drugs. After 7 days of treatment, cells were fixed with ethanol 95% and stained by adding either a colorimetric substrate of the alkaline phosphatase, the 5-Bromo-4-chloro-3-indolyl phosphate/Nitro blue tetrazolium (NBT) (Sigma-Aldrich) or a chromogenic substrate of this enzyme (absorbance at 405 nm), the p-Nitrophenyl Phosphate (pNPP) (Pierce Biotechnology).

HGPS MSCs [4] = experiment: ATP measurement (CellTiter Glo); assay type: cell-based, human; settings: 48 h
Procedure: HGPS and control MSC were seeded in a 96 well plates (3917, Corning) (5000 cells/well) and treated with the different drugs. After 48 hours of treatment in unique dose, ATP content was measured using CellTiter Glo® (Promega) accordingly to the manufacturer recommendations. Luminescence was measured with an Analyst GT multimode plate reader (Molecular devices). In parallel, Hoechst 33342 stained nuclei were counted in each well thanks to an automated microscope. The results exploited are given in the ratio between ATP measurement and the number of nuclei counted.

HDJ2 = experiment: Western blot analysis of HDJ2 farnesylation; assay type: cell-based, human
HGPS MSCs [5] = experiment: Nuclear shape abnormalities (lamin A/C immunostaining); assay type: cell-based, human; settings: 48 h, lamin A/C staining
Procedure: as §1

HMGCR = biological target: T1, HMGCR (Homo sapiens, UniProt P04035); experiment: HMGCR colorimetric activity assay; assay type: biochemical
T1 construct: oxidation of NADPH by the catalytic subunit of HMGCR in the presence of the substrate HMG CoA; purchased Sigma-Aldrich
T1 sequence (P04035 340-888 limits assumed): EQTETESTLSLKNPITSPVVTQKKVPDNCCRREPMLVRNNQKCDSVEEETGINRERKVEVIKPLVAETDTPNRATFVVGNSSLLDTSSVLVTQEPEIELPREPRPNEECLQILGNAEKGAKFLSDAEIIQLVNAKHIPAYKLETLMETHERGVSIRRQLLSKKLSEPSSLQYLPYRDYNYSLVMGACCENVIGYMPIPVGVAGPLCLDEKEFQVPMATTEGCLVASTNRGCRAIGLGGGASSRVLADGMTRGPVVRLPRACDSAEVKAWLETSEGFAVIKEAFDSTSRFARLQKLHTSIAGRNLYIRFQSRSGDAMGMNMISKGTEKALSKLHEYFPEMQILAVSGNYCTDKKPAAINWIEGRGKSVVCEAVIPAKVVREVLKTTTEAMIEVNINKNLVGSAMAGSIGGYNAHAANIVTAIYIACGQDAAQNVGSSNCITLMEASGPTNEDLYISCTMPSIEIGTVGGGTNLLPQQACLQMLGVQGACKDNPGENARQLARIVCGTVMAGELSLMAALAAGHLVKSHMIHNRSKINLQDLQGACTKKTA
Procedure: HMGCR activity was measured using GCoA Reductase Assay Kit (Sigma-Aldrich) according to the manufacturer's protocol. The assay is based on the spectrophotometric measurement of the decrease in absorbance at 340 nm, which represents the oxidation of NADPH by the catalytic subunit of HMGCR in the presence of the substrate HMG CoA.

FPPS [6] = biological target: T2, FPPS (Homo sapiens, UniProt P14324); experiment: Surface plasmon resonance on immobilized FPPS; assay type: binding
T2 sequence (P14324 1-419): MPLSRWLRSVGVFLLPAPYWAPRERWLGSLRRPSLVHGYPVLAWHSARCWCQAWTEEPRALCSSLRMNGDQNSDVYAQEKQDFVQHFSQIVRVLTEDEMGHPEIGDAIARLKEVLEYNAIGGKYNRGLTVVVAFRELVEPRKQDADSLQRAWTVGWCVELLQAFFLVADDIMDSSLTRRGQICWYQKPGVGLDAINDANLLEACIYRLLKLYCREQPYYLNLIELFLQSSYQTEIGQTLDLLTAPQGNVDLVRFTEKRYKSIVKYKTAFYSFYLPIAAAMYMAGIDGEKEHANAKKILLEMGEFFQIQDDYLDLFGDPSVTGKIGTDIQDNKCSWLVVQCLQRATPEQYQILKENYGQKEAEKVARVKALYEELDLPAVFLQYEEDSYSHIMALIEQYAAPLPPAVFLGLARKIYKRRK
Procedure: Surface plasmon resonance (SPR) was measured using a BIAcore 3000 instrument at 25° C. FPPS (2800 RU) was immobilized on flow cells of a CM5-chip. The running buffer was HBSEP pH 7.4 (20 mM Hepes, 150 mM NaCl, and 0.005% P20). Regeneration was performed with 10 mM glycine, pH 3.0. […] Data were evaluated using Scrubber2 (Biologic software) and BIAeval software (BIAcore).

FPPS [7] = biological target: T2, FPPS; experiment: FPPS activity assay; assay type: biochemical; parameters: endogenous in cells; host or cells: HGPS MSCs (cell lysate); settings: concentration inducing 50% of the maximum inhibiting effect of the compound
Procedure: (§2) Cell pellet of HGPS MSCs were resuspended in 25 mM Tris-HCl pH 7.4, 1 mM DTT, 1 mM MgCl2, 1 EDTA, 1 mM PMSF and centrifuged at 10,000×g for 10 min at 4° C. Protein content was determined using Lowry's method. Aliquots of cell lysate containing 100 μg of total proteins were incubated with tested substances at 37° C. for 30 min.
FPPS assay was carried out with some modifications of the procedure of Krisans et al. (Krisans et al., 1994, The Journal of biological chemistry VOL. 269: 14165-14169) and described by Gupta et al. (Gupta et al., 1999, Eur J Med Chem, VOL. 43: 2751-2767). Briefly, FPPS was assayed in 150 μL containing 25 mmol/L Hepes, pH=7, 2 mmol/L MgCl2, 1 mmol/L dithiothreitol, 5 mmol/L KF, 1% A noctyl-β-glucopyranoside, 3.3 μmol/L [4-14C] IPP (18 Ci/mmol), 3 μmol/L unlabeled IPP and 20 μmol/L geranyl diphosphate. Reactions were started by adding 40 μL of treated or untreated cell lysate and incubated for 45 min at 37° C. Reactions were stopped by the addition of 150 μL 2.5 mol/L HCl in 80% ethanol containing 100 μg/mL farnesol as a carrier. The samples were hydrolyzed for 30 min at 37° C. to convert the FPP to farnesol and neutralized by the addition of 150 μL of 10% NaOH. The reaction product (farnesol) was extracted into 1 mL of N-hexane and an aliquot (200 μL) of the organic phase was used for radioactivity counting. Parallel samples were assayed to evaluate the total and the nonspecific radioactivity. In all experiments, enzyme assays were carried out in triplicate.

HGPS MSCs [8] = experiment: Live cell imaging (cell density); assay type: cell-based, human; settings: 7 days
Procedure: HGPS MSCs were seeded at 2500 cells per well in 96-well plates and cultivated during 7 days in presence of the drugs. Cell density was monitored using an IncuCyte ZOOM microscope (Essen Bioscience). Each value corresponds to the mean of cell densities of four pictures taken in three independent wells.

FT = biological target: T3, FT (Homo sapiens, UniProt P49354+P49356); experiment: FT activity assay (Farnesyltransferase [3H] SPA); assay type: biochemical; settings: concentration inducing 50% of the maximum inhibiting effect of the compound
T3 construct: Reactions were started by adding 40 μL of treated or untreated cell lysate; endogenous in cells; host or cells: HGPS MSCs (cell lysate)
Procedure: as §2
FT activity was determined by Famesyltransferase [3H] SPA enzyme assay (Amersham Life Science, Buckinghamshire, England). Briefly, FT activity was assayed in 20 μl of assay buffer containing 50 mmol/L Hepes, 30 mmol/L MgCl2, 20 mmol/L KCl and 5 mmol/L dithiothreitol, 20 μl of [3H]-FPP (12 pmol) and 20 μl of biotin lamin B. Reactions were started by adding 40 μL of treated or untreated cell lysate and incubated for 1 hour at 37° C. Reactions were stopped by the addition of 150 μL of stop reagent containing SPA bead and counted in a scintillation counter. FT activity was expressed as pmoles of incorporated [3H]-FPP into biotin lamin-B peptide per minute per milligram of total proteins (pmol/min/mg prot). Parallel samples were assayed to evaluate the total and the nonspecific radioactivity. In all experiments enzyme assays were carried out in triplicate.

| Compound | lamin A and progerin mRNA expression [1] | prelamin A level (Western blot) (prelamin A) | number of Ki-67 positive cells (HGPS MSCs [2]) | rescue of premature osteogenic differentiation (alkaline phosphatase activity) (HGPS MSCs [3]) | ATP content (energetic metabolism) (HGPS MSCs [4]) | unfarnesylated form of HDJ2 (HDJ2) | rescue of nuclear shape abnormalities (HGPS MSCs [5]) | IC50 (μM) HMGCR (HMGCR) | direct interaction with FPPS (SPR), in words (FPPS [6]) | Ka (1/M), association constant (FPPS [6]; SPR, BIAcore 3000, 25° C.) [M⁻¹] | Kd (FPPS [6]; SPR, BIAcore 3000, 25° C., read-out: Kd (M), equilibrium dissociation constant) [M] | IC50 (FPPS [7]) [µM] | cytostatic effect in long term live imaging cultures (HGPS MSCs [8]) | IC50 (FT) [µM] |
| --- | --- | --- | --- | --- | --- | --- | --- | --- | --- | --- | --- | --- | --- | --- |
| Cc1cccc(N(C)c2cc(N3CCN(C(=O)Cc4c(-c5ccccc5)[nH]c5ccccc45)CC3)ncn2)c1 [Di-AP1, 1-{4-[6-(Methyl-m-tolyl-amino)-pyrimidin-4-yl]-piperazin-1-yl}-2-(2-phenyl-1H-indol-3-yl)-ethanone] | increased | increased | up to 65% | not significantly different to those observed following FTI treatment | increased ATP content | increase of the unfarnesylated form of the protein | not efficient | – | – | – | – | – | – | – |
| N#CC(c1ccncc1)c1cc(N2CCN(C(=O)c3cccs3)CC2)ncn1 (centres unmarked) [Mono-AP2, Pyridin-4-yl-{6-[4-(thiophene-2-carbonyl)-piperazin-1-yl]-pyrimidin-4-yl}-acetonitrile] | – | increased | – | – | – | increase of the unfarnesylated form of the protein | restoring HGPS MSCs nuclear shape defects at levels not significantly different from the FTI tipifarnib | No inhibition | confirmed the direct interactions | 5040 | 0.0002 | 1.82 | less cytostatic than the FTI tipifarnib | 9.32 |
